Molecular target: Programmed cell death protein 1/Programmed cell death 1 ligand 1 (Homo sapiens, UniProt Q15116+Q9NZQ7)
Assay: Inhibition of Tag2-PD1/Tag1-PD-L1 (unknown origin) protein-protein interaction preincubated for 15 mins followed by addition of anti-Tag1-Eu3+ and anti-Tag2-XL665 and measured after 2 hrs by HTRF analysis
Type: protein-complex assay

Programmed cell death protein 1/Programmed cell death 1 ligand 1, sequence (Q15116 whole entry): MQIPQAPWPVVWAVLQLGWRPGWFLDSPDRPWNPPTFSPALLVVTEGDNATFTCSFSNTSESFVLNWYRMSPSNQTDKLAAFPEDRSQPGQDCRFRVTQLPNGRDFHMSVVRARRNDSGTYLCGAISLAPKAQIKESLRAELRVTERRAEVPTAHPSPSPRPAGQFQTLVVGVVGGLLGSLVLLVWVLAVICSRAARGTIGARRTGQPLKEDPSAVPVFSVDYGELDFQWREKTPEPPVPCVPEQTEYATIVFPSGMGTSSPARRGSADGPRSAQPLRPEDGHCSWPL
Programmed cell death protein 1/Programmed cell death 1 ligand 1, sequence (Q9NZQ7 whole entry): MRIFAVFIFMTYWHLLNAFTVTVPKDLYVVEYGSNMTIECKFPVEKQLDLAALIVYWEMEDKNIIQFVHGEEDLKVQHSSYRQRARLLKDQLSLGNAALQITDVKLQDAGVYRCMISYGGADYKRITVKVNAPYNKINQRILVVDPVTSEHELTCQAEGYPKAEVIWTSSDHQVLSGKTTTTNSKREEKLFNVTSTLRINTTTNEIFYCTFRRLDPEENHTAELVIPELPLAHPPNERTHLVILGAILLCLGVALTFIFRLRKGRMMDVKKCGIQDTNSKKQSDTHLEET

Structure (SMILES)	IC50 [nM]
N#Cc1cncc(COc2cc(C(=O)N3CCc4c(-c5ccccc5)cccc43)ccc2CN2CC[C@@H](O)C2)c1	124
CC(=O)NCCNCc1ccc(C(=O)N2CCc3c(-c4ccccc4)cccc32)cc1OCc1cncc(C#N)c1	154
N#Cc1cncc(COc2cc(C(=O)N3CCc4c(-c5ccccc5)cccc43)ccc2CNC2CCOCC2)c1	378
N#Cc1cncc(COc2cc(C(=O)N3CCc4c(-c5ccccc5)cccc43)ccc2CNCCO)c1	87.3
N#Cc1cncc(COc2cc(C(=O)N3CCc4c(-c5ccccc5)cccc43)ccc2CN2CC[C@H](C(=O)O)C2)c1	53.2
N#Cc1cncc(COc2cc(C(=O)N3CCc4c(-c5ccccc5)cccc43)ccc2CN2CC[C@H](CO)C2)c1	128
CC(=O)NCCNCc1ccc(S(=O)(=O)N2CCc3c(-c4ccccc4)cccc32)cc1	> 5000
CC(C)(CO)NCc1ccc(C(=O)N2CCc3c(-c4ccccc4)cccc32)cc1OCc1cncc(C#N)c1	116
O=C(c1ccc(CNCCO)cc1)N1CCc2c(-c3ccc4ocnc4c3)cccc21	192
O=C(c1ccc(CNCCO)cc1)N1CCc2c(-c3ccc4nccnc4c3)cccc21	> 5000
N#Cc1cc(COc2cc(C(=O)N3CCc4c(-c5ccccc5)cccc43)ccc2CNCCO)ccn1	105
COc1cc(C(=O)N2CCc3c(-c4ccccc4)cccc32)ccc1CNCCO	161
COc1cccc(-c2cccc3c2CCN3C(=O)c2ccc(CNCCO)cc2)n1	> 5000
O=C(c1ccc(CNCCO)cc1)N1CCc2c(-c3cnc4[nH]ccc4c3)cccc21	876
O=C(c1ccc(CNCCO)cc1)N1CCc2c(-c3cccc4[nH]ccc34)cccc21	635
N#Cc1cncc(COc2cc(C(=O)N3CCc4c(-c5ccccc5)cccc43)ccc2CN2CCC[C@H]2C(=O)O)c1	626
N#Cc1cncc(COc2cc(C(=O)N3CCc4c(-c5ccccc5)cccc43)ccc2CN2CC[C@H](O)C2)c1	74.6
CC(C)(CO)NCc1ccc(C(=O)N2CCc3c(-c4ccccc4)cccc32)cc1OCc1ccnc(C#N)c1	229
CN(CCO)Cc1ccc(C(=O)N2CCc3c(-c4ccccc4)cccc32)cc1OCc1cncc(C#N)c1	60.1
CC(C)(CO)NCc1ccc(S(=O)(=O)N2CCc3c(-c4ccccc4)cccc32)cc1	> 5000
COCCNCc1ccc(C(=O)N2CCc3c(-c4ccccc4)cccc32)cc1OCc1cncc(C#N)c1	251
CC(=O)NCCNCc1ccc(C(=O)N2CCc3c(-c4ccccc4)cccc32)cc1OCc1ccnc(C#N)c1	308
N#Cc1cncc(COc2cc(C(=O)N3CCc4c(-c5ccccc5)cccc43)ccc2CN2CC[C@@H](CO)C2)c1	132
O=C(c1ccc(CNCCO)cc1)N1CCc2c(-c3ccncc3)cccc21	> 5000

Source: ChEMBL document CHEMBL5143605, “Discovery of 4-phenylindolines containing a (5-cyanopyridin-3-yl)methoxy moiety as potent inhibitors of the PD-1/PD-L1 interaction” (Bioorg Med Chem Lett, 2022)
